According to patent publication US20230301982A1, “N'-(2-CHLORO-6-METHYLBENZOYL)-4-METHYL-3-[2-(3-QUINOLYL)ETHYNYL]-BENZOHYDRAZIDE FOR TREATMENT OF ALZHEIMER'S DISEASE” (SUN PHARMA ADVANCED RESEARCH COMPANY LIMITED, priority 2020, published 2023):

Key:
Aβ plaque = Aβ plaque load (% area fraction) in cortex of Tg APP/PS1 mice using IHC; format: in vivo; details: 30 mg/kg orally once a day for three months
Description: (§1) Six month old male APP/PS1 mice which show little overt behavioral or pathological phenotype of AD were used. All experiments involving animals were performed in accordance with institutional guidelines for the use and care of animals after approval from the Institutional Animal Ethics Committee (IAEC), Central Animal Facility, Indian Institute of Science. Only male mice were used for the study and were housed at ambient temperature of 25° C. under 12 hours light-dark cycle with free access to food chow and drinking water. All mice were dosed once a day, orally with placebo for Compound 1 at 30 and 45 mg/kg for a period of three months.
(§2) After completion of treatment phase, mice were subjected to behavioural assessment using CFC test, followed by biochemical estimation of brain Aβ using an enzyme-linked immunosorbent assay (ELISA) and Aβ plaque load using Immunohistochemistry (IHC).
Mouse brains (n=5/treatment) were fixed in 4% (w/v) buffered paraformaldehyde (PFA). The brain tissues were processed for paraffin embedding and serial sections ([…]) were cut using microtome (Leica Biosystems Inc., Buffalo Grove, IL, USA). Sections were de-waxed by xylene treatment followed by a brief wash with chloroform to remove the residual xylene. Endogenous peroxidase activity was blocked with methanol containing hydrogen peroxide (3%, v/v) for 30 minutes. […]

total Aβ = assay: Total Aβ content in cortex of Tg APP/PS1 mice using ELISA; format: in vivo
Description: as §1, §2
The animals were (n=10/treatment) deeply anesthetized with a mixture of xylazine and ketamine (1:8), perfused with 10 mL of 1x saline for 4 minutes, their brains were excised, homogenized immediately in 0.5 mL ELISA buffer, and centrifuged at 5000xg for 15 minutes at 4° C. to precipitate the pellet. Total Aβ was estimated in the cortex of APP/PS1 mice using ELISA assay kit as per the manufacturer instruction.

hERG channel = hERG channel (Homo sapiens, UniProt Q12809); assay: in vitro effect on hERG channel; details: at a therapeutically effective dose
Tg APP/PS1 mice = assay: Contextual fear conditioning (CFC): freezing behaviour in Tg APP/PS1 mice; format: in vivo; details: 24 hours after fear conditioning
Description: as §1, §2
The CFC test was performed using an apparatus from San Diego Instruments (CA, USA). The CFC training context was rectangular in shape, identity of the context was maintained with the presence of distinct odor (2% acetic acid, v/v). The conditioning chamber was cleaned with 70% ethanol before and after each session. […] Contextual fear memory was assessed by returning mice to the training context 24 hours after fear conditioning and analyzing freezing during a test period of 2 minutes. […]

K562 cells = assay: In-vitro Cell Proliferation Assay (K562 cells; measure of endogenous Bcr-Abl kinase inhibition); format: cell-based; details: for inhibition at 0.0001 µM: Homo sapiens, read-out: % inhibition (at 0.1 nM), 0.1 nM, cell proliferation of K562 cells
From the text: (For experimental procedure, refer to the ‘416 publication under In-vitro Cell Proliferation Assay heading).

[1] = test system: ECG parameters (QT interval, QTc interval, QTCf interval and heart rate); assay: in vivo effect on ECG parameters in conscious beagle dogs; details: at a therapeutically effective dose
[2] = Concentration of compounds in brain and plasma; format: in vivo
Aβ42 = assay: Estimation of Aβ42 and Aβ42/Aβ40 ratio in TgSwDI mice using ELISA; format: in vivo; details: o.d., 96 days, TgSwDI mice cortex
Description: Female TgSwDI (expresses human APP gene containing Swedish, Dutch, and Iowa mutations) of 5-7 months of age were used for the study. Animals were habituated for handling for one week prior to initiation of dosing. All experiments involving animals were performed in accordance with institutional guidelines for the use and care of animals after approval from the Institutional Animal Ethics Committee (IAEC), Sun Pharma Advanced Research Company (SPARC) Ltd. Mice were housed at an ambient temperature of 25° C. under 12 hours light-dark cycle with free access to food chow and drinking water. Animals were treated with assigned treatments p.o., o.d., for a period of 96 days. […] After completion of treatment phase, mice from each treatment group were perfused with ice-cold phosphate buffered saline (PBS, pH 7.4), brain was excised, cortex was isolated and processed for preparation of lysates as per protocol provided by Invitrogen ELISA kit. Estimation of Aβ42 and Aβ40 were carried out as per the instructions provided by Invitrogen user manual. Ratio of Aβ42/40 was calculated.

[3] = test system: ECG parameters (QT interval, QTc interval, QTCf interval and heart rate); assay: in vivo effect on ECG parameters in guinea pig; details: at a therapeutically effective dose
[4] = 30 mg/kg orally once a day for three months
[5] = 45 mg/kg orally once a day for three months

Chain of hERG channel (Q12809 whole entry): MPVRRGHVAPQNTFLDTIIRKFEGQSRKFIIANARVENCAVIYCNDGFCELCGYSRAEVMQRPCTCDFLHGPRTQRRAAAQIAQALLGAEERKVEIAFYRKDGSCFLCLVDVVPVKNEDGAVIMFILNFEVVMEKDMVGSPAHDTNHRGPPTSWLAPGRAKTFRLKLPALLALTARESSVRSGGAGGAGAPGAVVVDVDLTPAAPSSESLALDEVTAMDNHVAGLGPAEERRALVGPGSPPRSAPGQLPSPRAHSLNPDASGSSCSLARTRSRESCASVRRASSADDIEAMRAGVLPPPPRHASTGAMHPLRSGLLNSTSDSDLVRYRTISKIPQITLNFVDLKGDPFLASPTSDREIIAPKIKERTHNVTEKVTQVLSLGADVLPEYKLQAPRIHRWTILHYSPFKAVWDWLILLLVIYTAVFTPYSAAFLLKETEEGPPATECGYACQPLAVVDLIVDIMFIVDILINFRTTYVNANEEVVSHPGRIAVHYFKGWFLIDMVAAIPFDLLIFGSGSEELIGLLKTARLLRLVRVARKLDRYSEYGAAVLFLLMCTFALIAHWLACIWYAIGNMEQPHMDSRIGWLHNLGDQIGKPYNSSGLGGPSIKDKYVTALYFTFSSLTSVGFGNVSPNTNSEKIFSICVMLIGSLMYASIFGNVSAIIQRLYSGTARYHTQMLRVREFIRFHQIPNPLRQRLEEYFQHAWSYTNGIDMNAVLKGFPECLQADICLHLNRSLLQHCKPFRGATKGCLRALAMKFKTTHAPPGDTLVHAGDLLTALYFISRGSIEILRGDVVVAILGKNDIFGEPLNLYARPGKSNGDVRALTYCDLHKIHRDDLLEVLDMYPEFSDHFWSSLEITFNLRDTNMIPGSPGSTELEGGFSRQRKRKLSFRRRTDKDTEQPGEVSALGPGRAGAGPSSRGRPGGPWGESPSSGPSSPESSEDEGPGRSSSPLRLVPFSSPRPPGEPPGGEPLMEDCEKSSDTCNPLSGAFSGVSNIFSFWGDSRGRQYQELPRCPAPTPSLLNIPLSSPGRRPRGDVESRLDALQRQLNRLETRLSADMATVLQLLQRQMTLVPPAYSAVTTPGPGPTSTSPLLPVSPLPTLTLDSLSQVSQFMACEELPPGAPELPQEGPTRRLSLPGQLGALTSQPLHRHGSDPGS

Cc1ccc(C(=O)NNC(=O)c2c(C)cccc2Cl)cc1C#Cc1cnc2ccccc2c1 [Compound 1, N′-(2-chloro-6-methylbenzoyl)-4-methyl-3-[2-(3-quinolyl)ethynyl]-benzohydrazide]
Aβ plaque (% area fraction) in cortex compared to placebo (Aβ plaque): significantly reduced | total Aβ content in cortex compared to placebo treated group (total Aβ; [4]): significant reduction | total Aβ content in cortex compared to placebo treated group (total Aβ; [5]): significant reduction | cardiovascular side effects: in vitro effect on hERG channel (hERG channel): devoid of cardiovascular side effects | % freezing of mice (CFC) compared to placebo treated group (Tg APP/PS1 mice; [4]): significant increase | % freezing of mice (CFC) compared to placebo treated group (Tg APP/PS1 mice; [5]): significant increase | inhibition at 0.0001 µM (K562 cells): 37% | potency (inhibition of K562 cell proliferation) (K562 cells; at 0.1 nM, Compound 1 versus similar compounds from the ‘416 publication): significantly higher | cardiovascular side effects: in vivo effect on ECG parameters (QT, QTc, QTCf interval, heart rate) [1]: devoid of cardiovascular side effects | higher ratio of brain to plasma concentration compared to nilotinib ([2]; at 1 hour, versus nilotinib): about 40 times | brain penetration compared with dasatinib ([2]; versus dasatinib): significantly better brain penetration | ratio of concentration in brain to plasma as compared to nilotinib or dasatinib ([2]; versus nilotinib or dasatinib): significantly higher | effect on Aβ42 content compared to placebo group (Aβ42; 30 mg/kg p.o.): statistically significant | effect on Aβ42 content compared to placebo group (Aβ42; 45 mg/kg p.o.): statistically significant | Aβ42/Aβ40 ratio, trend over doses (Aβ42; 15, 30, and 45 mg/kg p.o.): dose-dependent reduction | Aβ42 content, trend over doses (Aβ42; 15, 30, and 45 mg/kg p.o.): dose-dependent reduction | cardiovascular side effects: in vivo effect on ECG parameters (QT, QTc, QTCf interval, heart rate) [3]: devoid of cardiovascular side effects

Cc1ccc(C(=O)NNC(=O)c2c(C)cccc2Cl)cc1C#Cc1ccc2ncccc2c1 [Compound 1.10 of the ‘416 publication]
inhibition at 0.0001 µM (K562 cells): 0%

Cc1cccc(Cl)c1C(=O)NNC(=O)c1ccc(F)c(C#Cc2cnc3ccccc3c2)c1 [Compound 1.21 of the ‘416 publication]
inhibition at 0.0001 µM (K562 cells): 6%

Cc1ccc(C(=O)NNC(=O)c2c(C)cccc2Cl)cc1C#Cc1cnc2ccc(Cl)cc2c1 [Compound 1.50 of the ‘416 publication]
inhibition at 0.0001 µM (K562 cells): 0%

Cc1ccc(C(=O)NNC(=O)c2c(C)cccc2Cl)cc1C#Cc1cnc2ccc(F)cc2c1 [Compound 1.55 of the ‘416 publication]
inhibition at 0.0001 µM (K562 cells): 0%

Cc1cccc(Cl)c1C(=O)NNC(=O)c1cccc(C#Cc2cnc3ccccc3c2)c1 [Compound 1.59 of the ‘416 publication]
inhibition at 0.0001 µM (K562 cells): 2%

Cc1cn(-c2cc(NC(=O)c3ccc(C)c(Nc4nccc(-c5cccnc5)n4)c3)cc(C(F)(F)F)c2)cn1 [Nilotinib, nilotinib, reference compound]
effect on Aβ42 content compared to placebo group (Aβ42; 30 mg/kg p.o.): no statistically significant reduction
